The test system of the first assay is 233499-124-R-J3-PDC spheroids with HUVEC/MSC, viability. Kind of assay: Anticancer human tumor 233499-124-R-J3-PDC patient-derived colon adenocarcinoma cell line growth inhibition [PI3K]. The following applies: second compound 0.316 µM; first compound 0.316 µM; hits give low values. The method in brief: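 Complex 3D spheroids (cancer cells + endothelial HUVEC + mesenchymal stem cells); drug pairs of targeted agent x inavolisib/alpelisib/duvelisib/copanlisib; half-log series from ~Cmax, max 10 microM if Cmax unknown; endpoint viability.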
In general, viability, T/C refers to the result in the treated group divided by that in the control group, in per cent. With `Cn1ncc(Cl)c1-c1cc(C(=O)NC(CN)Cc2cccc(F)c2)sc1Cl` (configuration not stated) + CC(Nc1ncnc2nc[nH]c12)c1cc2cccc(Cl)c2c(=O)n1-c1ccccc1, the viability, T/C is 70.6%.
Same read-out and setting: for `Cn1nccc1Nc1nccc(-c2ccn(C(CO)c3ccc(Cl)c(F)c3)c(=O)c2)n1` (configuration not stated) + CC(Nc1ncnc2nc[nH]c12)c1cc2cccc(Cl)c2c(=O)n1-c1ccccc1 the value was 90.4%.

Staying with this assay, now noted: second compound 0.316 µM; first compound 1 µM; hits give low values.
With `CC(C)NCC(C(=O)N1CCN(c2ncnc3c2C(C)CC3O)CC1)c1ccc(Cl)cc1` (configuration not stated) + CC(Nc1ncnc2nc[nH]c12)c1cc2cccc(Cl)c2c(=O)n1-c1ccccc1, the viability, T/C was 87.8%.
Still for that read-out and setting: in the case of `CCN1CCN(Cc2ccc(Nc3ncc(F)c(-c4cc(F)c5nc(C)n(C(C)C)c5c4)n3)nc2)CC1` + CC(Nc1ncnc2nc[nH]c12)c1cc2cccc(Cl)c2c(=O)n1-c1ccccc1 it was 45.2%; in that of `Cn1ncc(Cl)c1-c1cc(C(=O)NC(CN)Cc2cccc(F)c2)sc1Cl` (configuration not stated) + CC(Nc1ncnc2nc[nH]c12)c1cc2cccc(Cl)c2c(=O)n1-c1ccccc1, 62.7%; in that of `Cn1nccc1Nc1nccc(-c2ccn(C(CO)c3ccc(Cl)c(F)c3)c(=O)c2)n1` (configuration not stated) + CC(Nc1ncnc2nc[nH]c12)c1cc2cccc(Cl)c2c(=O)n1-c1ccccc1, 70.8%.

The assay is the same for the next values; noted with them: second compound 0.316 µM; first compound 3.16 µM; hits give low values.
`CC(C)NCC(C(=O)N1CCN(c2ncnc3c2C(C)CC3O)CC1)c1ccc(Cl)cc1` (configuration not stated) + CC(Nc1ncnc2nc[nH]c12)c1cc2cccc(Cl)c2c(=O)n1-c1ccccc1: the viability, T/C is 86.9%.
On the same count and under the same terms, for `Cn1ncc(Cl)c1-c1cc(C(=O)NC(CN)Cc2cccc(F)c2)sc1Cl` (configuration not stated) + CC(Nc1ncnc2nc[nH]c12)c1cc2cccc(Cl)c2c(=O)n1-c1ccccc1 the value was 63.6%.
Consider `Cn1nccc1Nc1nccc(-c2ccn(C(CO)c3ccc(Cl)c(F)c3)c(=O)c2)n1` (configuration not stated) + CC(Nc1ncnc2nc[nH]c12)c1cc2cccc(Cl)c2c(=O)n1-c1ccccc1, for which the viability, T/C was 78.1%.

Still in this assay, the particulars now being: second compound 0.316 µM; first compound 10 µM; hits give low values.
With `CC(C)NCC(C(=O)N1CCN(c2ncnc3c2C(C)CC3O)CC1)c1ccc(Cl)cc1` (configuration not stated) + CC(Nc1ncnc2nc[nH]c12)c1cc2cccc(Cl)c2c(=O)n1-c1ccccc1, the viability, T/C is 71.9%.
Still for that read-out and setting: for `Cn1ncc(Cl)c1-c1cc(C(=O)NC(CN)Cc2cccc(F)c2)sc1Cl` (configuration not stated) + CC(Nc1ncnc2nc[nH]c12)c1cc2cccc(Cl)c2c(=O)n1-c1ccccc1 the value was 28.7%; for `Cn1nccc1Nc1nccc(-c2ccn(C(CO)c3ccc(Cl)c(F)c3)c(=O)c2)n1` (configuration not stated) + CC(Nc1ncnc2nc[nH]c12)c1cc2cccc(Cl)c2c(=O)n1-c1ccccc1, 68.6%.

The assay is the same for the next values; noted with them: second compound 1 µM; first compound 0.00316 µM; hits give low values.
With `CCN1CCN(Cc2ccc(Nc3ncc(F)c(-c4cc(F)c5nc(C)n(C(C)C)c5c4)n3)nc2)CC1` + CC(Nc1ncnc2nc[nH]c12)c1cc2cccc(Cl)c2c(=O)n1-c1ccccc1, the viability, T/C is 104%.

The assay is the same for the next values; noted with them: second compound 1 µM; first compound 0.01 µM; hits give low values.
Turning to `CCN1CCN(Cc2ccc(Nc3ncc(F)c(-c4cc(F)c5nc(C)n(C(C)C)c5c4)n3)nc2)CC1` + CC(Nc1ncnc2nc[nH]c12)c1cc2cccc(Cl)c2c(=O)n1-c1ccccc1, the viability, T/C was 90.8%.

Still in this assay, the particulars now being: second compound 1 µM; first compound 0.0316 µM; hits give low values.
With `CC(C)NCC(C(=O)N1CCN(c2ncnc3c2C(C)CC3O)CC1)c1ccc(Cl)cc1` (configuration not stated) + CC(Nc1ncnc2nc[nH]c12)c1cc2cccc(Cl)c2c(=O)n1-c1ccccc1, the viability, T/C is 91.1%.
On the same count and under the same terms, in the case of `CCN1CCN(Cc2ccc(Nc3ncc(F)c(-c4cc(F)c5nc(C)n(C(C)C)c5c4)n3)nc2)CC1` + CC(Nc1ncnc2nc[nH]c12)c1cc2cccc(Cl)c2c(=O)n1-c1ccccc1 it was 76%; in that of `Cn1ncc(Cl)c1-c1cc(C(=O)NC(CN)Cc2cccc(F)c2)sc1Cl` (configuration not stated) + CC(Nc1ncnc2nc[nH]c12)c1cc2cccc(Cl)c2c(=O)n1-c1ccccc1, 94.8%.
In the case of `Cn1nccc1Nc1nccc(-c2ccn(C(CO)c3ccc(Cl)c(F)c3)c(=O)c2)n1` (configuration not stated) + CC(Nc1ncnc2nc[nH]c12)c1cc2cccc(Cl)c2c(=O)n1-c1ccccc1, the viability, T/C was 91.7%.

The same assay, now with this note: second compound 1 µM; first compound 0.1 µM; hits give low values.
In the case of `CC(C)NCC(C(=O)N1CCN(c2ncnc3c2C(C)CC3O)CC1)c1ccc(Cl)cc1` (configuration not stated) + CC(Nc1ncnc2nc[nH]c12)c1cc2cccc(Cl)c2c(=O)n1-c1ccccc1, the viability, T/C was 88.3%.
For `CCN1CCN(Cc2ccc(Nc3ncc(F)c(-c4cc(F)c5nc(C)n(C(C)C)c5c4)n3)nc2)CC1` + CC(Nc1ncnc2nc[nH]c12)c1cc2cccc(Cl)c2c(=O)n1-c1ccccc1, the viability, T/C was 83.8%.
Regarding `Cn1ncc(Cl)c1-c1cc(C(=O)NC(CN)Cc2cccc(F)c2)sc1Cl` (configuration not stated) + CC(Nc1ncnc2nc[nH]c12)c1cc2cccc(Cl)c2c(=O)n1-c1ccccc1, the viability, T/C was 90.9%.
On to `Cn1nccc1Nc1nccc(-c2ccn(C(CO)c3ccc(Cl)c(F)c3)c(=O)c2)n1` (configuration not stated) + CC(Nc1ncnc2nc[nH]c12)c1cc2cccc(Cl)c2c(=O)n1-c1ccccc1, for which the viability, T/C was 72.6%.

Staying with this assay, now noted: second compound 1 µM; first compound 0.316 µM; hits give low values.
Consider `CC(C)NCC(C(=O)N1CCN(c2ncnc3c2C(C)CC3O)CC1)c1ccc(Cl)cc1` (configuration not stated) + CC(Nc1ncnc2nc[nH]c12)c1cc2cccc(Cl)c2c(=O)n1-c1ccccc1, for which the viability, T/C was 88.1%.
On the same count and under the same terms, for `CCN1CCN(Cc2ccc(Nc3ncc(F)c(-c4cc(F)c5nc(C)n(C(C)C)c5c4)n3)nc2)CC1` + CC(Nc1ncnc2nc[nH]c12)c1cc2cccc(Cl)c2c(=O)n1-c1ccccc1 the value was 54.3%; for `Cn1ncc(Cl)c1-c1cc(C(=O)NC(CN)Cc2cccc(F)c2)sc1Cl` (configuration not stated) + CC(Nc1ncnc2nc[nH]c12)c1cc2cccc(Cl)c2c(=O)n1-c1ccccc1, 86.1%.
With `Cn1nccc1Nc1nccc(-c2ccn(C(CO)c3ccc(Cl)c(F)c3)c(=O)c2)n1` (configuration not stated) + CC(Nc1ncnc2nc[nH]c12)c1cc2cccc(Cl)c2c(=O)n1-c1ccccc1, the viability, T/C is 72.9%.

The assay is the same for the next values; noted with them: second compound 1 µM; first compound 1 µM; hits give low values.
Consider `CC(C)NCC(C(=O)N1CCN(c2ncnc3c2C(C)CC3O)CC1)c1ccc(Cl)cc1` (configuration not stated) + CC(Nc1ncnc2nc[nH]c12)c1cc2cccc(Cl)c2c(=O)n1-c1ccccc1, for which the viability, T/C was 106%.
Still for that read-out and setting: in the case of `CCN1CCN(Cc2ccc(Nc3ncc(F)c(-c4cc(F)c5nc(C)n(C(C)C)c5c4)n3)nc2)CC1` + CC(Nc1ncnc2nc[nH]c12)c1cc2cccc(Cl)c2c(=O)n1-c1ccccc1 it was 50.8%; in that of `Cn1ncc(Cl)c1-c1cc(C(=O)NC(CN)Cc2cccc(F)c2)sc1Cl` (configuration not stated) + CC(Nc1ncnc2nc[nH]c12)c1cc2cccc(Cl)c2c(=O)n1-c1ccccc1, 73.5%.
For `Cn1nccc1Nc1nccc(-c2ccn(C(CO)c3ccc(Cl)c(F)c3)c(=O)c2)n1` (configuration not stated) + CC(Nc1ncnc2nc[nH]c12)c1cc2cccc(Cl)c2c(=O)n1-c1ccccc1, the viability, T/C was 86.3%.

Staying with this assay, now noted: second compound 1 µM; first compound 3.16 µM; hits give low values.
As for `CC(C)NCC(C(=O)N1CCN(c2ncnc3c2C(C)CC3O)CC1)c1ccc(Cl)cc1` (configuration not stated) + CC(Nc1ncnc2nc[nH]c12)c1cc2cccc(Cl)c2c(=O)n1-c1ccccc1, the viability, T/C was 82.1%.
Turning to `Cn1ncc(Cl)c1-c1cc(C(=O)NC(CN)Cc2cccc(F)c2)sc1Cl` (configuration not stated) + CC(Nc1ncnc2nc[nH]c12)c1cc2cccc(Cl)c2c(=O)n1-c1ccccc1, the viability, T/C is 59.6%.
`Cn1nccc1Nc1nccc(-c2ccn(C(CO)c3ccc(Cl)c(F)c3)c(=O)c2)n1` (configuration not stated) + CC(Nc1ncnc2nc[nH]c12)c1cc2cccc(Cl)c2c(=O)n1-c1ccccc1: the viability, T/C was 81.3%.

Staying with this assay, now noted: second compound 1 µM; first compound 10 µM; hits give low values.
In the case of `CC(C)NCC(C(=O)N1CCN(c2ncnc3c2C(C)CC3O)CC1)c1ccc(Cl)cc1` (configuration not stated) + CC(Nc1ncnc2nc[nH]c12)c1cc2cccc(Cl)c2c(=O)n1-c1ccccc1, the viability, T/C is 65.2%.
Same read-out and setting: for `Cn1ncc(Cl)c1-c1cc(C(=O)NC(CN)Cc2cccc(F)c2)sc1Cl` (configuration not stated) + CC(Nc1ncnc2nc[nH]c12)c1cc2cccc(Cl)c2c(=O)n1-c1ccccc1 the value was 24.6%.
Same read-out and setting: in the case of `Cn1nccc1Nc1nccc(-c2ccn(C(CO)c3ccc(Cl)c(F)c3)c(=O)c2)n1` (configuration not stated) + CC(Nc1ncnc2nc[nH]c12)c1cc2cccc(Cl)c2c(=O)n1-c1ccccc1 it was 69%.

The assay is the same for the next values; noted with them: second compound 3.16 µM; first compound 0.00316 µM; hits give low values.
With `CCN1CCN(Cc2ccc(Nc3ncc(F)c(-c4cc(F)c5nc(C)n(C(C)C)c5c4)n3)nc2)CC1` + CC(Nc1ncnc2nc[nH]c12)c1cc2cccc(Cl)c2c(=O)n1-c1ccccc1, the viability, T/C is 80.2%.

The assay is the same for the next values; noted with them: second compound 3.16 µM; first compound 0.01 µM; hits give low values.
Regarding `CCN1CCN(Cc2ccc(Nc3ncc(F)c(-c4cc(F)c5nc(C)n(C(C)C)c5c4)n3)nc2)CC1` + CC(Nc1ncnc2nc[nH]c12)c1cc2cccc(Cl)c2c(=O)n1-c1ccccc1, the viability, T/C was 79.2%.

The same assay, now with this note: second compound 3.16 µM; first compound 0.0316 µM; hits give low values.
Regarding `CC(C)NCC(C(=O)N1CCN(c2ncnc3c2C(C)CC3O)CC1)c1ccc(Cl)cc1` (configuration not stated) + CC(Nc1ncnc2nc[nH]c12)c1cc2cccc(Cl)c2c(=O)n1-c1ccccc1, the viability, T/C was 91%.
Still for that read-out and setting: for `CCN1CCN(Cc2ccc(Nc3ncc(F)c(-c4cc(F)c5nc(C)n(C(C)C)c5c4)n3)nc2)CC1` + CC(Nc1ncnc2nc[nH]c12)c1cc2cccc(Cl)c2c(=O)n1-c1ccccc1 the value was 95.2%; for `Cn1ncc(Cl)c1-c1cc(C(=O)NC(CN)Cc2cccc(F)c2)sc1Cl` (configuration not stated) + CC(Nc1ncnc2nc[nH]c12)c1cc2cccc(Cl)c2c(=O)n1-c1ccccc1, 97%; for `Cn1nccc1Nc1nccc(-c2ccn(C(CO)c3ccc(Cl)c(F)c3)c(=O)c2)n1` (configuration not stated) + CC(Nc1ncnc2nc[nH]c12)c1cc2cccc(Cl)c2c(=O)n1-c1ccccc1, 87%.

The record behind these values is PubChem BioAssay AID1963984 (Molecular Pharmacology Branch, DTP, NCI, 2024).
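Further: spheroids exposed to agents for seven days before readout; percent viability relative to DMSO vehicle control taken as 100%.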
